{"source": "BindingDB's records for doi:10.1016/j.bmcl.2017.02.035", "about": "(Nestl&#65533, 2017)", "target": "Disintegrin and metalloproteinase domain-containing protein 17 (Homo sapiens, UniProt P78536)", "sequence (P78536 whole entry, the tested form may be a part)": "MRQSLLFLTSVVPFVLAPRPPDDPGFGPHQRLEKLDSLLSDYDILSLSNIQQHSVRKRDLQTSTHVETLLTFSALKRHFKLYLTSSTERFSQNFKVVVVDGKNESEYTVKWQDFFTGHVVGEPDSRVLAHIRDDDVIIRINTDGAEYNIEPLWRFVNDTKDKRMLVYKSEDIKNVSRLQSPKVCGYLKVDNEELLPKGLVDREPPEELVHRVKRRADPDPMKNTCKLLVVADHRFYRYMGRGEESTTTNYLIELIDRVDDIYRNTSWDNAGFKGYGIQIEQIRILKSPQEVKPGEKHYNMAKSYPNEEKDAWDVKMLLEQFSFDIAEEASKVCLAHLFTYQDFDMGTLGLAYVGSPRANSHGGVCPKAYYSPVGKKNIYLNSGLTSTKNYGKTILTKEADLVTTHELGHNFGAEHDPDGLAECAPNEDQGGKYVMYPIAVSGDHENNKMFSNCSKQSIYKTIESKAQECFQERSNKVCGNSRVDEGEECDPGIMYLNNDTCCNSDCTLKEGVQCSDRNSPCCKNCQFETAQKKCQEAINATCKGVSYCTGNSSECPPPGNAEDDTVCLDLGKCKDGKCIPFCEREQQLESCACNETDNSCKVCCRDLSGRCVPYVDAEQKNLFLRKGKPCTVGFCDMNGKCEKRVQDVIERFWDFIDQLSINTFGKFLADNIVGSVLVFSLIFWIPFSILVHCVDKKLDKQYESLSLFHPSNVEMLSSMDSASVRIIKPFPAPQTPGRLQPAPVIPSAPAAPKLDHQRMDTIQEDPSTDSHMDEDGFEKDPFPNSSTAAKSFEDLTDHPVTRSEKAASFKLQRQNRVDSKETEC", "test": "Inhibition of recombinant TACE catalytic domain (unknown origin) using Abz-LAQAVRSSSR-Dpa as substrate preincubated for 10 mins followed by substrate addition measured after 10 mins by FRET assay", "note": "pIC50: −log10 of the molar value.", "data": [{"smiles": "C#CCN1C[C@H](C(=O)NO)[C@H](NS(=O)(=O)c2ccc(OCc3cc(C)nc4ccccc34)cc2)C1", "values": [{"measurement": "pIC50", "value": 9.15}]}]}
